How the values were obtained:
AD hippocampus = assay: Homing of intravenously injected individual peptide-displaying phages; assay type: in vivo, mouse; settings: intravenously injected phage displaying the peptide
From the text: FIG. 1B relates to phage titration showing that about 5 times more phage were recovered from the AD hippocampus than from the normal control. In the sequencing, phages displaying the peptides code named CASP (SEQ ID NO: 3; CASPRLSKC), CES (SEQ ID NO: 11, CESPLLSEC), and DAG (SEQ ID NO: 102, CDAGRKQKC) dominated. Hippocampus from age-matched normal wild-type mouse brain was used as a control.

Tg2576 mouse brain = assay: In vivo homing of FAM-DAG in Tg2576 mice
Method: (§1) All animal experiments were conducted under an approved protocol of the Institutional Animal Care and Use Committee of Sanford Burnham Prebys Medical Discovery Institute. The following transgenic mouse models were used for peptide homing studies—hAPP-J20 ([…], Nature genetics 1, 345-347 (1992)), Tg2576 (Jacobsen et al., Proc Natl Acad Sci USA 103, 5161-5166 (2006)), and mTHY-1-α-synuclein model (Chesselet et al., Neurotherapeutics 9, 297-314 (2012)). The P13 glioblastoma model is a patient-derived orthotopic xenograft model (Bougnaud et al., Oncotarget, (2016)). Spheroids were cultured as described previously (Bjerkvig et al., J Neurosurg 72, 463-475 (1990)). After two weeks in culture, spheroids (volume 2.5 μl) were stereotactically implanted into the brains of nude mice. Mice were used approximately 6 weeks after tumors were induced, when mice started presenting neurological symptoms. The acute brain injury model was setup as previously described (Mann et al., Nature communications 7, 11980 (2016)). Briefly, 8 to 10 week-old male BL6 mice were anaesthetized with 4% isoflurane in 70% N2O and 30% O2, and a 5-mm craniotomy was performed using a portable drill and a trephine over the right parietotemporal cortex using a stereotactic frame. […]

recombinant human CTGF = target: T1, recombinant human CTGF (Homo sapiens, UniProt P29279); assay: ELISA binding to recombinant CTGF
T1 construct: purchased Affymetrix 14-8503-80
T1 sequence (P29279 253-349 limits assumed): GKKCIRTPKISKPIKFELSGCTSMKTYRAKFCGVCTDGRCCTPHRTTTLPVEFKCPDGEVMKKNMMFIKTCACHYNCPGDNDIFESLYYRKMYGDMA
Method: FIG. 10 is a graphical representation relating to identification of a receptor for DAG. DAG binds to recombinant CTGF. FAM-DAG was incubated on ELISA plate coated with recombinant human CTGF at two different peptide concentrations of the FAM peptide alone (light gray bars), or in the presence of non-labeled DAG (0.5 mM) (dark gray bars). […] DAG was also shown to colocalize with CTGF. FAM-DAG was intravenously injected in 9-month-old hAPP-J20 and WT mice, allowed to circulate for 30 minutes, after which mice were perfused, and the brains were fixed, sectioned and stained for FAM (green) and CTGF (red).
Human CTGF recombinant protein (Affymetrix Cat #14-8503-80) was incubated on Nunc low-binding plates at concentration of 10 μg/ml for overnight at 4° C. Excess protein in the plates was removed by washing with PBS-T (PBS with 0.005% Tween 20). Plates were blocked with 200 μl of 3% non-fat milk in PBS for 1 hour at room temperature and washed with PBS-T once. Biotin-labeled peptide (at different concentrations) in PBS was added to the plate for 2 hours at 37° C. For peptide inhibition, non-labeled DAG peptide (0.5 mM) was added 30 minutes prior to addition of labeled peptide. The plates were washed with 100 μl PBS-T for three times to remove excess peptide. The bound peptide was detected by incubating with 100 μl of Vectastain ABC™ reagent (Vector labs, Burlingame, Calif.) for 30 minutes. The plate was washed with 100 μl PBS-T three times. Next, 100 μl of o-phenylenediamine dihydrochloride (OPD) silver and gold substrate (Sigma-Aldrich) was added to the wells and incubated at room temperature until visible color was observed (˜30 min). Adding 50 μl of 1 M H2SO4 stopped the reaction and the plate was read at 495 nm (FlexStation™ 3 Reader, Molecular Devices, Sunnyvale, Calif., USA).

albumin (BSA) = albumin (BSA) (Bos taurus, UniProt P02769); assay: ELISA binding to control protein
albumin (BSA), sequence (P02769 25-607): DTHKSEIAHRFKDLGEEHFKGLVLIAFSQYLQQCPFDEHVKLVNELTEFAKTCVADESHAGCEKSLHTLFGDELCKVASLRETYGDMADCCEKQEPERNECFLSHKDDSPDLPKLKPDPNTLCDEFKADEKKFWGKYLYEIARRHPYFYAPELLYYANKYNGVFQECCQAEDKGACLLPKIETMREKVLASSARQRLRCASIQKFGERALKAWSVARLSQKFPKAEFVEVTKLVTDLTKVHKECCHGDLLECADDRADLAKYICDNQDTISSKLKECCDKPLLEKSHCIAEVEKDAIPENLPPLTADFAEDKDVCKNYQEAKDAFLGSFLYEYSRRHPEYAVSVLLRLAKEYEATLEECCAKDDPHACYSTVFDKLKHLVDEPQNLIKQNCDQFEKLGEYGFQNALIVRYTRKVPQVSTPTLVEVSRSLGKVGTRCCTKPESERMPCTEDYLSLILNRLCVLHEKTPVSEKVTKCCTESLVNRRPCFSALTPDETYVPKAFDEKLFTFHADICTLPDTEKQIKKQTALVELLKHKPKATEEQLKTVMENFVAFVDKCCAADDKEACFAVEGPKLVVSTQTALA

[1] = test system: mTHY-1/α-synuclein overexpressing mouse model of Parkinson's disease; assay: In vivo homing in Parkinson's disease mouse model; settings: systemically injected
Method: as §1

Sequence: CDAGRKQKC
- Phage accumulation in normal brain (AD hippocampus): no accumulation in normal brain
- Phage homing to AD hippocampus (AD hippocampus): home to AD hippocampus with high specificity
- Colocalization in Tg2576 brain sections (Tg2576 mouse brain; DAG-injected Tg2576 mice, immunostaining): significant colocalization of DAG with Aβ and CD31
- Homing in Tg2576 model (Tg2576 mouse brain; i.v. FAM-DAG): detected both in the hippocampus and in the cortex
- Binding to CTGF-coated plates (recombinant human CTGF; ELISA): bound to CTGF-coated plates in a dose-dependent manner
- Inhibition of CTGF binding by unlabeled DAG (recombinant human CTGF; non-labeled DAG 0.5 mM): inhibited in the presence of an excess of unlabeled DAG
- Binding to control protein (BSA) (albumin (BSA)): only minimal binding to a control protein (BSA)
- Accumulation in Parkinson's model brain [1]: accumulated in GFAP-positive astrocytes

Source: patent US11571485B2, “Peptides and antibodies for detecting changes in alzheimer's disease brain and methods of use thereof” (Sanford Burnham Prebys Medical Discovery Institute, priority 2016, dated 2023)
